The record followed here is patent US10633386B2, “BET protein degraders” (THE REGENTS OF THE UNIVERSITY OF MICHIGAN, priority 2016, dated 2020).

pIC50: −log10 of the molar value.

By pIC50 is commonly meant the negative decadic logarithm of the IC50, by convention in mol/L. A high value points to a low IC50.

The subject of data set [1] is TNBC cell lines. In words: Combination apoptosis induction (immunoblotting and/or Annexin-PI staining). In kind it is cell-based. Particulars: TNBC cell lines (FIGS. 15 and 16; ABT-263 data not shown). How it is done: Immunoblotting and/or Annexin-PI staining confirmed that BM-1197 (250 nM), ABT-263 (250 nM), and A-1155463 (250 nM) potentiated Cpd. No. 4-induced apoptosis (50 nM) in MDA-MB-468 (FIG. 14) and other TNBC cell lines (data not shown). Synergistic induction of apoptosis by Cpd. […] No. 4-induced apoptosis in these cell lines. […] A with either BM-1197 (FIGS. 15 and 16) or ABT-263 (data not shown). […] No. 4 and BM-1197 was also detected in additional TNBC cell lines responsive to Cpd. No. 4-induced apoptosis (BT-20 and MDA-MB-157) (data not shown), further supporting that BCL-XL inhibitors potentiate Cpd. No. 4-induced apoptosis in TNBC.

The next data set has as its system Mono-Mac6. Kind of data set: Cell growth inhibition (CellTiter-Glo), leukemia line Mono-Mac6. In kind it is cell-based. Particulars: Homo sapiens, MONO-MAC-6. How it is done: (§1) Cell growth inhibitory activity of representative BET bromodomain degraders in representative non-small cell lung cancer cell lines was determined using the CellTiter-Glo® Luminescent Cell Viability Assay. Cells were seeded in 384-well white opaque cell culture plates at a density of 2,000 cells/well with serially diluted compounds and incubated at 37° C. in an atmosphere of 95% air and 5% CO2 for 4 days. Cell viability was determined using the CellTiter-Glo® Luminescent Cell Viability Assay Kit (Promega, Madison, Wis.) according to the manufacture's instruction. Briefly, a volume of CellTiter-Glo® Reagent equal to the volume of cell culture medium was added to each well, and then the plates were incubated at room temperature for 10-20 minutes. The luminescent signal was measured using a Tecan Infinite M1000 multimode microplate reader (Tecan, Morrisville, N.C.). The half maximal inhibitory concentration (IC50) was calculated using the GraphPad Prism 5 software (GraphPad Software, La Jolla, Calif.). Cpd. A is a BET bromodomain inhibitor, see U.S. Appl. No. 62/121,637, having the following structure: Cell growth inhibitory activity of representative BET bromodomain degraders in representative leukemia cell lines, see Table 8, was determined as described in Example 17.
(In general: In ATP-based viability assays light output follows the ATP content of the culture.)

For another data set, the system named is RS4; 11. In words: Cell growth inhibition (CellTiter-Glo), leukemia line RS4; 11. In kind it is cell-based. To be noted: Homo sapiens, 11 leukemia cell line. How it is done:
as §1

In a further data set the test system is MDA-MB-231 xenograft. Kind of data set: In vivo antitumor activity in MDA-MB-231 xenograft model (Example 25). More on the design: species or system SCID mice. How it is done:
(§2) For the in vivo efficacy experiments of this example, when tumors reached 80-200 mm^3, SCID mice were randomized into groups. Cpd. A, Cpd. No. 4, Cpd. No. 6, or vehicle control (10% PEG400: 3% Cremophor: 87% PBS, or 2% TPGS:98% PEG200) was given at the dose and duration indicated. Tumor sizes and animal weights were measured 2-3 times per week. Tumor volume (mm^3)=(length×width^2)/2. Tumor growth inhibition was calculated as TGI (%)=(Vc−Vt)/(Vc−Vo)*100, where Vc, Vt are the median of control and treated groups at the end of the study and Vo at the start. All the in vivo studies were performed under an animal protocol approved by the University Committee on Use and Care of Animals of the University of Michigan, in accordance with the recommendations in the Guide for the Care and Use of Laboratory Animals of the National Institutes of Health.
(§3) No. 4 was determined in xenograft tumor models of TNBC cell lines.

The test system of the next data set is MOLM16. In words: Cell growth inhibition (CellTiter-Glo), leukemia line MOLM16. Format: cell-based. How it is done: as §1
For another data set, the system named is AML-5. In words: Cell growth inhibition (CellTiter-Glo), leukemia line AML-5. In kind it is cell-based. To be noted: AML-5 leukemia cell line. How it is done:
as §1

For the next data set, the system named is MDA-MB-468 xenograft. Kind of data set: In vivo antitumor activity in MDA-MB-468 xenograft model. Also noted: species or system SCID mice. How it is done:
as §2, §3

The nature of data set [2]: Pharmacokinetics (PK) analysis in tumor bearing mice. Format: in vivo. How it is done:
Cpd. […] A at 50 mg/kg, daily, oral dosing, 5 days a week for 3 weeks. Cpd. […] Neither Cpd. A nor Cpd. No. 4 caused significant weight loss (data not shown) or apparent toxicity in this model. […] No. 4 (10 mg/kg) reduced the levels of BET proteins by >80% at as early as 1 h and this effect lasted for at least 9 h in WHIM24 tumors (data not shown). […] No. 4 treatment (data not shown). […] No. 4 is reversible once the drug is cleared from the tumor tissue.

For the next data set, the system named is SKML. In words: Cell growth inhibition (CellTiter-Glo), leukemia line SKML. In kind it is cell-based. How it is done: as §1
Data set [3] has as its system TNBC cell lines. Kind of data set: Apoptosis induction in TNBC cell lines. In kind it is cell-based. To be noted: triple-negative breast cancer (TNBC) cell lines (FIG. 12).
A further data set has as its system AML-3. In words: Cell growth inhibition (CellTiter-Glo), leukemia line AML-3. Format: cell-based. To be noted: AML3; AML-3 leukemia cell line. How it is done:
as §1

In the case of `CCn1nc(C2CC2)cc1Nc1nc(COC)nc2[nH]c3cc(-c4c(C)noc4C)c(OC)cc3c12` [Cpd. A, reference compound], the “synergism with either BM-1197 or ABT-263” value in the data set with TNBC cell lines [1] is “No clear synergism”.
As for `CCn1nc(C2CC2)cc1Nc1nc(C(=O)NCCCOCCOCCOCCCNc2cccc3c2C(=O)N(C2CCC(=O)NC2=O)C3=O)nc2[nH]c3cc(-c4c(C)noc4C)c(OC)cc3c12` (stereo not shown) [Cpd. No. 4], the negative logarithm of the IC50 (pIC50) with Mono-Mac6 is 5.85; in the data set on RS4; 11, 7.30; in the data set with MOLM16 it was 6.52; in the data set on AML-5 it was 6.30; with SKML, 6.70; with AML-3, 6.40. Besides, the antitumor activity entry in the data set on MDA-MB-231 xenograft (MDA-MB-231 model, 10 mg/kg, IV, 3 times per week for 2-3 weeks (FIG. 10)) was “limited or no antitumor activity”; in the data set with MDA-MB-468 xenograft (MDA-MB-468 model, 10 mg/kg, IV, 3 times per week for 2-3 weeks (FIG. 11)) it was “limited or no antitumor activity”. Also, the tumor growth entry in the data set on MDA-MB-231 xenograft (MDA-MB-231 xenograft model in mice (FIG. 10)) and in the data set on MDA-MB-468 xenograft (MDA-MB-468 xenograft model in mice (FIG. 11)) was “reduce tumor growth” each time. The “drug exposure in the xenograft tumor tissue” value in data set [2] (MDA-MB-231 and MDA-MB-468 models (data not shown)) is reported as “limited drug exposure”. For the same molecule, the “drug exposure in the WHIM24 xenograft tumor tissue” value in data set [2] (WHIM24 model) was “good drug exposure”. For the same molecule, the “drug concentrations in both plasma and tumors over time” value in data set [2] (single dose 10 mg/kg, WHIM24 tumor bearing mice (data not shown)) is “diminished rapidly”. In addition, the “drug exposure in plasma and WHIM24 tumors” value in [2] (single dose 10 mg/kg, tumor bearing mice, at 1 and 3 h (data not shown)) was “reasonable drug exposure”. For the same molecule, the apoptosis induction entry with TNBC cell lines [3] is on record as “induces stronger apoptosis than Cpd. A”.
